The record followed here is PMC8469090 (Pharmaceutics, 2021).

This test has as its system cutaneous tumors (basal cell carcinoma, squamous cell carcinoma, melanoma, and others). Kind of test: Tumor response 2 months after electrochemotherapy (RECIST 1.1). Conditions: for tumor complete response rate 2 months after therapy: biopsied tumors, electrochemotherapy with i.v. bleomycin 15,000 IU/m^2; for Tumor Response (All Tumors): electrochemotherapy, 2 months, RECIST 1.1.

Method: All patients who presented with skin cancers, recurrent disease (and/or metastatic disease) or a second primary tumor in the head and neck region were either not suitable for conventional treatments or refused them. The patients were treated with electrochemotherapy at the Department of Otorhinolaryngology and Cervicofacial Surgery, University Medical Centre Ljubljana, Slovenia or the Department of Dermatology and Allergology, University of Szeged, Hungary. […] Treatment with electrochemotherapy was previously agreed upon by a multidisciplinary board, and written informed consent was obtained from all eligible patients. The selection of patients was performed according to the NICE guidelines. The included patients were older than 18 years and presented with different histologies of cutaneous tumors (basal cell carcinoma, squamous cell carcinoma, melanoma, and others). […] In the study, altogether 25 patients were included; 8 patients younger than 65 for blood sample collection, 4 patients younger than 65 for blood and tumor sample collection and 13 patients for tumor sample collection with no age limitation.
Electrochemotherapy was performed according to the updated standard operating procedures [24]. […] Electric pulses for electrochemotherapy were generated by a Cliniporator pulse generator (IGEA, s.r.l., Carpi, Italy) and delivered by fixed geometry electrodes, i.e., mainly electrodes with eight needles arranged in two rows of four needles each with a distance of 4 mm between the rows. In one application of electric pulses, eight pulses with a voltage of 400 V, a pulse duration of 100 µs and a frequency of 5000 Hz were applied. The number of applications was adjusted to the size of the treated tumors.
The tumor volumes were calculated according to the SOP, i.e., a × b^2 × π/6. Tumor response 2 months after electrochemotherapy was evaluated with a clinical exam according to RECIST 1.1 criteria [25].

Consider bleomycin, for which the “tumor complete response rate 2 months after therapy” value runs as follows: (BCC (8/9)) 89%; (SCC (4/5)) 80%. For the same substance, the “Tumor Response (All Tumors)” value is reported as 1 CR, 2 PR (Table 3 patient 1 (BCC, 3 lesions, 24,000 IU)); 4 CR, 1 SD (Table 3 patient 5 (BCC, 5 lesions, 27,000 IU)); 5 CR (Table 3 patient 7 (BCC, 5 lesions, 24,000 IU)); 6 CR (Table 3 patient 11 * (SCC, 6 lesions, 30,000 IU)); 3 CR (Table 3 patient 15 * (Melanoma, 3 lesions, 29,100 IU)); 2 CR (Table 3 patient 17 (Porocarcinoma, 2 lesions, 29,850 IU)). Besides, the “Tumor Response (All Tumors)” value (Table 3 patient 19 (BCC, 16 lesions, 21,900 IU)) is 11 CR, 5 PR.
